Results: patent US9226924B2, “Methods of treating or preventing neuropathic pain” (Toray Industries, Inc., priority 2010, dated 2016)

Legend:
male ddY mice = experiment: mouse wheel running test (motor inhibitory effect)
Protocol: 8 male ddY mice of 5 weeks old were used as one experimental group for evaluation. The test compound, grouping of mice, vehicle used and administration method were the same as in Example 1.
Mice were placed in a running wheel apparatus (NATSUME SEISAKUSHO) 0.5 hour after administration of the test compound, and the number of revolutions of the running wheel was counted for a period of 1 hour immediately thereafter to evaluate a motor inhibitory effect.
In the same manner as in Example 2, motor inhibitory effects of oral administration of 30 and 100 mg/kg pregabalin were evaluated.
(§1) The symbol * in the figure indicates a significant difference (*p<0.025) from the group treated with vehicle.

[1] = tested on: mouse models of neuropathic pain (Seltzer's method, sciatic nerve ligation); experiment: von Frey test in mouse Seltzer model of neuropathic pain; format: in vivo; conditions: oral
Protocol: 7 to 8 male ICR mice of 5 weeks old were used as one experimental group for evaluation. Mouse models of neuropathic pain were prepared according to Seltzer's method (Seltzer et al., Pain, 1990, vol. 43, p. 205; Malmberg et al., Pain, 1998, vol. 76, p. 215). That is, the sciatic nerve at the femoral region of the right hindlimb of each mouse was exposed under anesthesia, and the sciatic nerve was triply ligated tightly with silk suture of 8-0 (NATSUME SEISAKUSHO) under microscope so that only half thickness of the nerve was trapped in the ligature.
Seven days after the above-described sciatic nerve ligation, using 0.5% methylcellulose as a vehicle, mice of each group received administration of vehicle, administration of a suspension of pregabalin (3 mg/kg) alone, administration of a suspension of Compound 3 (0.3 mg/kg) alone, or administration (combined administration) of a mixed suspension of pregabalin and Compound 3 (3 mg/kg and 0.3 mg/kg, respectively).
Evaluation of neuropathic pain (hereinafter “von Frey test”) was carried out as follows. Mouse models of neuropathic pain were conditioned for at least 1 hour in an acryl cage for measurement (NATSUME SEISAKUSHO) placed on a wire net. Thereafter, using a filament (North Coast Medical. Inc.) which exerted a pressure of 0.16 g, the mice were subjected to mechanical tactile stimulus by applying the filament to the plantar surface of both hindpaws 3 times, each for 3 seconds, with an interval of 3 seconds.
Seven days after sciatic nerve ligation, a von Frey test was carried out before administration of the test compound, 1 hour after administration, 2 hours after administration, and 3 hours after administration. Change in the total scores from before to after administration of the test compound (hereinafter “ΔvF test score”) was calculated by subtracting the total score obtained at each time point after administration of the test compound from the total score obtained before administration of the test compound, which was used as an indicator of analgesic effect.
That is, individual ΔvF test scores of the mice in the group treated with pregabalin alone and the mice in the group treated with Compound 3 alone were sorted in ascending order, respectively, and ΔvF test scores of the two groups at the same rank were added, thereby obtaining a theoretical total value.
The symbol # in the figures indicates a significant difference (###p<0.001) from the group treated with vehicle. […] The symbol * in the figures indicates a significant difference (*p<0.05, **p<0.01) from the theoretical total value.
In the same manner as in Example 1, effects of oral administration of 1, 3, 10 and 30 mg/kg pregabalin alone were evaluated 1 hour after administration in mouse models of neuropathic pain.
as §1

## CC(C)C[C@H](CN)CC(=O)O [Pregabalin, S-(+)-4-amino-3-(2-methylpropyl) butanoic acid]
Male ddY mice; 3 mg/kg pregabalin alone, oral, 0.5 to 1.5 hours after administration
  motor inhibitory effect (number of revolutions of running wheel): No statistically-significant motor inhibitory effect was found
Male ddY mice; 30 mg/kg pregabalin alone, oral (Comparative Example 2), *p<0.025 vs vehicle
  motor inhibitory effect (number of revolutions of running wheel): statistically significantly reduced the number of revolutions
Male ddY mice; 100 mg/kg pregabalin alone, oral (Comparative Example 2), *p<0.025 vs vehicle
  motor inhibitory effect (number of revolutions of running wheel): statistically significantly reduced the number of revolutions
[1]; 1 mg/kg pregabalin alone, 1 hour after administration (Comparative Example 1)
  analgesic effect (ΔvF test score): No analgesic effect was observed
[1]; 3 mg/kg pregabalin alone, 1 hour after administration (Comparative Example 1)
  analgesic effect (ΔvF test score): No analgesic effect was observed
[1]; 3 mg/kg pregabalin alone, 1 hour, 2 hours and 3 hours after administration, male ICR mice
  analgesic effect (ΔvF test score): an analgesic effect was not observed
[1]; 10 mg/kg pregabalin alone, 1 hour after administration (Comparative Example 1), *p<0.025 vs vehicle
  analgesic effect (ΔvF test score): a statistically-significant analgesic effect was observed
[1]; 30 mg/kg pregabalin alone, 1 hour after administration
  analgesic effect relative to combined administration of 3 mg/kg pregabalin and 0.3 mg/kg Compound 3: about the same level
[1]; 30 mg/kg pregabalin alone, 1 hour after administration (Comparative Example 1), *p<0.025 vs vehicle
  analgesic effect (ΔvF test score): a statistically-significant analgesic effect was observed

## COc1ccc(-n2nc(C3(O)CCC(O)CC3)cc2-c2ccc(C)cc2)cc1 (stereo not drawn) [Compound 3, 1-(1-(4-methoxyphenyl)-5-(p-tolyl)-1H-pyrazol-3-yl)cyclohex-an-cis-1,4-diol]
Male ddY mice; 0.3 mg/kg Compound 3 alone, oral, 0.5 to 1.5 hours after administration
  motor inhibitory effect (number of revolutions of running wheel): No statistically-significant motor inhibitory effect was found
[1]; 0.3 mg/kg Compound 3 alone, 1 hour, 2 hours and 3 hours after administration, male ICR mice
  analgesic effect (ΔvF test score): an analgesic effect was not observed
